The test relates to Influenza A/WSN/33. The class given is cell-based.

The structures appear in SMILES notation. Entries after “also recorded” stand apart in the source; their conditions may differ.

Take `O=C(/C=C\n1cnc(-c2cc(C(F)(F)F)cc(C(F)(F)F)c2)n1)NNc1ccccn1` [verdinexor]: the “Sensitivity of passaged virus to verdinexor” value is on record as “did not result in a reduction of drug sensitivity; also recorded: remained sensitive”.

The values above are taken from paper PMC5125695, “Antiviral Efficacy of Verdinexor In Vivo in Two Animal Models of Influenza A Virus Infection” (PLoS ONE, 2016).
